Measurements reported in the Kinase Knowledgebase extract (Sharma et al. 2016).

Target: ROCK2 (human) (UniProt O75116)
Test: Inhibition of ROCK2 Kinase Activity

Sequence of ROCK2 (human) (O75116 whole entry, looked up): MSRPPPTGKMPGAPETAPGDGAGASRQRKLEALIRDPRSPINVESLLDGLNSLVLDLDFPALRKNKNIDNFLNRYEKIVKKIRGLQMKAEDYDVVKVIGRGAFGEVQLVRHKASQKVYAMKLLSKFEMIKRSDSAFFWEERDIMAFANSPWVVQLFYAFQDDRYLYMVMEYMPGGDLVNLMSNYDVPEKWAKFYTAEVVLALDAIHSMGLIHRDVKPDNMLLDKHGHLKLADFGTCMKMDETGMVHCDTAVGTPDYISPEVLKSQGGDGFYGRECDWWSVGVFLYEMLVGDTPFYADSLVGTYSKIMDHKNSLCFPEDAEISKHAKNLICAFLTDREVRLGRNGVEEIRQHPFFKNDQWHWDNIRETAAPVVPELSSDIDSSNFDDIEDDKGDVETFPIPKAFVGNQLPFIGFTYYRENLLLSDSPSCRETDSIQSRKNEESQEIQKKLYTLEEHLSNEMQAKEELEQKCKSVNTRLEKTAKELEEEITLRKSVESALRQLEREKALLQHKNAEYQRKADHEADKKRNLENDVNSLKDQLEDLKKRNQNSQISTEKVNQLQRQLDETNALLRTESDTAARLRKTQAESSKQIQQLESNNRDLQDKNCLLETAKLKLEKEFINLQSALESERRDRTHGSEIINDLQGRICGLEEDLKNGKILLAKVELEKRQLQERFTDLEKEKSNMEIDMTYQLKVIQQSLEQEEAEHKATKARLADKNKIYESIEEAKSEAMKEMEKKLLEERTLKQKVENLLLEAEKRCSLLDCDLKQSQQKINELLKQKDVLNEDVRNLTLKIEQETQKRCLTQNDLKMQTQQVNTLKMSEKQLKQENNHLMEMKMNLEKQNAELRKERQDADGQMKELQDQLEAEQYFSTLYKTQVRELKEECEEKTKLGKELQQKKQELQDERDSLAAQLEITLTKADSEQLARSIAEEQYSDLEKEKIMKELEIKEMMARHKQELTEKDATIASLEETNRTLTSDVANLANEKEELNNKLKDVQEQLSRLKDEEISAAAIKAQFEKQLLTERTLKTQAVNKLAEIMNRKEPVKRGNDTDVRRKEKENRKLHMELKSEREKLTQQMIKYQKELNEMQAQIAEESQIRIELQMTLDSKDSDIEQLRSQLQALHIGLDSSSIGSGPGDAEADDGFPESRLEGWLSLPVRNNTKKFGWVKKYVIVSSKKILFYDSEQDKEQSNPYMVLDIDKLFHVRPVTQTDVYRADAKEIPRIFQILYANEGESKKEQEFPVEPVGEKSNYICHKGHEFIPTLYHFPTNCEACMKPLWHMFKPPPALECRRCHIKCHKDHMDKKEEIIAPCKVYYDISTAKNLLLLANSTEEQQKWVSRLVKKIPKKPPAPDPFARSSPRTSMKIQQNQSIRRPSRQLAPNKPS

IC50 [µM] | Structure (SMILES)
> 5 | O=C(C=Cc1ccccc1)NCc1nc(-c2ccncc2)n[nH]1
> 5 | O=C(NCc1nc(-c2c[nH]c3ncccc23)n[nH]1)c1cnc[nH]1
> 5 | O=C(NCc1nc(-c2c[nH]c3ncccc23)n[nH]1)c1c(Cl)cc(Cl)cc1Cl
> 5 | O=C(C=Cc1ccccc1C(F)(F)F)NCc1nc(-c2c[nH]c3ncccc23)n[nH]1
> 5 | O=C(NCc1nc(-c2ccncc2)n[nH]1)c1csc2ccccc12
> 5 | O=C(C=Cc1cccc(O)c1)NCc1nc(-c2c[nH]c3ncccc23)n[nH]1
> 5 | CS(=O)(=O)Nc1cccc(C(=O)NCc2nc(-c3ccncc3)n[nH]2)c1
> 5 | O=C(NCc1nc(-c2c[nH]c3ncccc23)n[nH]1)C(O)CCl (stereo unspecified)
> 5 | Cc1c(C(=O)NCc2nc(-c3ccncc3)n[nH]2)cccc1[N+](=O)[O-]
> 5 | O=C(NCc1nc(-c2ccncc2)n[nH]1)C(O)CCl (stereo unspecified)
> 5 | O=C(NCc1nc(-c2c[nH]c3ncccc23)n[nH]1)c1ccc(Oc2cccc(O)c2)cc1
> 5 | O=C(NCc1nc(-c2ccncc2)n[nH]1)c1ccc(OCc2ccccc2)cc1
> 5 | CCCc1ccc(C(=O)NCc2nc(-c3c[nH]c4ncccc34)n[nH]2)cc1
> 5 | COC1=CC(OC)(C(=O)NCc2nc(-c3ccncc3)n[nH]2)C=C1 (stereo unspecified)
> 5 | CCCCCc1ccc(C(=O)NCc2nc(-c3c[nH]c4ncccc34)n[nH]2)cc1
> 5 | O=C(NCc1nc(-c2c[nH]c3ncccc23)n[nH]1)c1cc(F)c(F)cc1Cl
> 5 | COC1=C(O)C=CC(C=CC(=O)NCc2nc(-c3c[nH]c4ncccc34)n[nH]2)=CC1

IC50 [µM] | Structure (SMILES)
≤ 5 | COc1ccc(C(=O)NCc2nc(-c3ccncc3)n[nH]2)cc1
> 5 | Oc1ccc(C(O)CCc2nc(-c3ccncc3)n[nH]2)cc1 (stereo unspecified)
> 5 | O=C(CCc1ccccc1O)NCc1nc(-c2c[nH]c3ncccc23)n[nH]1
> 5 | COc1ccccc1CCC(=O)NCc1nc(-c2ccncc2)n[nH]1
> 5 | CC(C)(C)OC(=O)N1CCCCC1C(=O)NCc1nc(-c2ccncc2)n[nH]1 (stereo unspecified)
> 5 | O=C(NCc1nc(-c2c[nH]c3ncccc23)n[nH]1)c1c(F)cccc1F
> 5 | Cc1cccc(C(=O)NCc2nc(-c3ccncc3)n[nH]2)c1
> 5 | O=C(C=Cc1ccc(Cl)cc1)NCc1nc(-c2c[nH]c3ncccc23)n[nH]1
> 5 | O=C(NCc1nc(-c2ccncc2)n[nH]1)c1cccc(Oc2ccccc2)c1
> 5 | COc1ccccc1C=CC(=O)NCc1nc(-c2ccncc2)n[nH]1
> 5 | O=C(NCc1nc(-c2ccncc2)n[nH]1)c1cc(Cl)ccc1[N+](=O)[O-]
> 5 | O=C(NCc1nc(-c2c[nH]c3ncccc23)n[nH]1)c1cccnc1Cl
> 5 | COc1cc(OC)c(C(=O)NCc2nc(-c3c[nH]c4ncccc34)n[nH]2)c(OC)c1
> 5 | CC(C)(C)C(=O)Oc1ccc(C(=O)NCc2nc(-c3ccncc3)n[nH]2)c(OC(=O)C(C)(C)C)c1
> 5 | CC(C)(C)OC(=O)NC(Cc1ccccn1)C(=O)NCc1nc(-c2c[nH]c3ncccc23)n[nH]1 (stereo unspecified)
> 5 | CC(C)(C)OC(=O)NC1CCN(C(=O)Cc2nc(-c3ccncc3)n[nH]2)C1 (stereo unspecified)
> 5 | COc1ccc(Br)c(C(=O)NCc2nc(-c3c[nH]c4ncccc34)n[nH]2)c1

The remaining lines, values behind:

Structure (SMILES) | IC50 [µM]
O=C(CCc1ccccc1Br)NCc1nc(-c2c[nH]c3ncccc23)n[nH]1 | > 5
CC(C)c1ccc(C(=O)NCc2nc(-c3c[nH]c4ncccc34)n[nH]2)cc1 | > 5
CC(C)(C)OC(=O)NCCCC(NC(=O)c1ccc(O)cc1O)c1nc(-c2ccncc2)n[nH]1 (stereo unspecified) | ≤ 5
CC(C)(C)OC(=O)N1CCNC(C(=O)NCc2nc(-c3ccncc3)n[nH]2)C1 (stereo unspecified) | > 5
O=C(NCc1nc(-c2ccncc2)n[nH]1)c1ccc(Cl)cc1Cl | > 5
O=C(NCc1nc(-c2ccncc2)n[nH]1)C1CCCN1C(=O)OCc1ccccc1 (stereo unspecified) | > 5
O=C(NCc1nc(-c2ccncc2)n[nH]1)c1cccc2c1OCC2 | > 5
O=C(NCc1nc(-c2ccncc2)n[nH]1)c1c(O)ccc2ccccc12 | > 5
O=C(NCc1nc(-c2c[nH]c3ncccc23)n[nH]1)c1cc(F)c(Cl)cc1F | > 5
O=C(NCc1nc(-c2c[nH]c3ncccc23)n[nH]1)c1ccccc1-c1ccccc1 | > 5
CC(=O)c1cccc(C(=O)NCc2nc(-c3ccncc3)n[nH]2)c1 | > 5
CC(=O)Oc1ccc(C(=O)NCc2nc(-c3ccncc3)n[nH]2)c(O)c1 | ≤ 5
Cc1c(Cl)ccc(S(=O)(=O)NCc2nc(-c3ccncc3)n[nH]2)c1O | > 5
CC(C)(C)OC(=O)NCC(=O)NCc1nc(-c2ccncc2)n[nH]1 | > 5
O=C(NCc1nc(-c2c[nH]c3ncccc23)n[nH]1)c1cncc(Br)c1 | > 5
COc1ccc(C(=O)NCc2nc(-c3c[nH]c4ncccc34)n[nH]2)c(OC)c1 | > 5
O=C(C=Cc1ccc2c(c1)OCO2)NCc1nc(-c2c[nH]c3ncccc23)n[nH]1 | > 5
O=C(NCc1nc(-c2c[nH]c3ncccc23)n[nH]1)c1ccnc(Cl)c1 | > 5
O=C(NCc1nc(-c2c[nH]c3ncccc23)n[nH]1)c1c2ccccc2cc2ccccc12 | > 5
O=C(CCc1cccc(Br)c1)NCc1nc(-c2c[nH]c3ncccc23)n[nH]1 | > 5
COc1ccc(Cl)cc1C(=O)NCc1nc(-c2c[nH]c3ncccc23)n[nH]1 | > 5

Structure (SMILES) | IC50 [µM]
COc1ccc(O)c(C(=O)NCc2nc(-c3ccncc3)n[nH]2)c1 | ≤ 5
COc1ccc(C(=O)NCc2nc(-c3ccncc3)no2)cc1 | > 5
Cc1nc(Br)sc1C(=O)NCc1nc(-c2ccncc2)n[nH]1 | > 5
Cc1ccsc1C(=O)NCc1nc(-c2ccncc2)n[nH]1 | ≤ 5
O=C(NCc1nc(-c2ccncc2)n[nH]1)c1n[nH]c2ccccc12 | ≤ 5
CCCCCc1ccc(C(=O)NCc2nc(-c3ccncc3)n[nH]2)cc1 | > 5
Cc1cccc(C(=O)NCc2nc(-c3ccncc3)n[nH]2)c1C | > 5
CCC(C(=O)NCc1nc(-c2c[nH]c3ncccc23)n[nH]1)c1ccccc1 (stereo unspecified) | > 5
COc1ccc(OC)c(C(=O)NCc2nc(-c3c[nH]c4ncccc34)n[nH]2)c1 | > 5
CC(=O)Oc1ccc(C(=O)NCc2nc(-c3c[nH]c4ncccc34)n[nH]2)cc1 | ≤ 5
Cc1ccc(C(=O)CCC(=O)NCc2nc(-c3c[nH]c4ncccc34)n[nH]2)cc1 | > 5
CC(C)C(NC(=O)OC(C)(C)C)C(=O)NCc1nc(-c2c[nH]c3ncccc23)n[nH]1 (stereo unspecified) | > 5
O=C(NCc1nc(-c2c[nH]c3ncccc23)n[nH]1)c1ccc(F)c(F)c1 | > 5
O=C(NCc1nc(-c2ccncc2)n[nH]1)c1ccncc1 | > 5
CC1=NN(c2ccc(C(=O)NCc3nc(-c4ccncc4)n[nH]3)cc2)C(=O)C1 | > 5
CC(C)CC(NC(=O)OC(C)(C)C)C(=O)NCc1nc(-c2c[nH]c3ncccc23)n[nH]1 (stereo unspecified) | > 5
CC(C)(C)c1ccc(C(=O)NCc2nc(-c3c[nH]c4ncccc34)n[nH]2)cc1 | > 5
CC(C)(C)OC(=O)NC(Cc1ccc(O)cc1)C(=O)NCc1nc(-c2ccncc2)n[nH]1 (stereo unspecified) | > 5
O=C(NCc1cc(-c2ccncc2)n[nH]1)c1ccc(O)cc1O | ≤ 5
O=C(Cc1ccc(O)c(Cl)c1)NCc1nc(-c2ccncc2)n[nH]1 | > 5
COc1ccc(C(=O)NCc2nc(-c3ccncc3)n[nH]2)cc1O | > 5
